Experimental data taken from patent US6706663B2, “Herbicidal 3-heterocyclic substituted benzisothiazole and benzisoxazole compounds” (Wyeth, priority 2000, dated 2004).

How the values were obtained:
[1] = tested on: CYPSE (Cyperus serotinus); test: Flooded paddy, preemergence weed control; assay type: in vivo, Rottb.; details: rated 3-4 weeks after treatment, 0-9 rating scale
How it was run: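 Seeds or propagules were planted 0.5 cm deep in silt loam and flooded to 1.5–3 cm. Compounds in 50/50 v/v aqueous/acetone were pipetted into the flood water at about 0.0080 to 0.1250 kg/ha. After 3–4 weeks in the greenhouse, effect was rated visually on a 0–9 scale versus untreated control.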

[2] = tested on: CHEAL (Chenopodium album); test: Preemergence herbicidal evaluation; assay type: in vivo, L.; details: rated 4-5 weeks after treatment
How it was run: (§1)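 Seeds mixed with potting soil were planted atop about one inch of soil, then sprayed with test compound in aqueous acetone. Cups were kept in the greenhouse and rated visually 4–5 weeks after treatment on a 0–9 scale against untreated control.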

[3] = tested on: AMBEL (Ambrosia artemisifolia); test: Preemergence herbicidal evaluation; assay type: in vivo, L.; details: rated 4-5 weeks after treatment
How it was run: as §1

[4] = tested on: CASOB (Cassia obtusifolia); test: Preemergence herbicidal evaluation; assay type: in vivo, L.; details: rated 4-5 weeks after treatment
How it was run: as §1

[5] = tested on: GLXMAW (Soybean, Williams); test: Postemergence herbicidal evaluation; assay type: in vivo, Glycine max, (L.) Merr. cv Williams
How it was run: (§2)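 Seedlings grown for about two weeks were sprayed postemergence and then kept under standard greenhouse care. Injury was rated visually 4–5 weeks after treatment on a 0–9 scale against untreated controls, and ratings from repeat tests were averaged.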

[6] = tested on: MOOVA (Monochoria vaginalis); test: Flooded paddy, preemergence weed control; assay type: in vivo, Presl.; details: rated 3-4 weeks after treatment, 0-9 rating scale
How it was run: (§3)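 Preemergence, flooded: propagules planted at 0.5 cm depth in silt loam, water level maintained at 1.5 to 3 cm over soil, containers kept on greenhouse benches. Activity scored 0-9 by eye relative to a control plant.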

[7] = tested on: IPOHE (Ipomoea hederacea); test: Postemergence herbicidal evaluation; assay type: in vivo, (L.) Jacq.
How it was run: as §2

[8] = tested on: GALAP (Galium aparine); test: Preemergence herbicidal evaluation; assay type: in vivo; details: rated 4-5 weeks after treatment
How it was run: as §1

[9] = tested on: ORYSAT (Rice, Tebonnet); test: Preemergence herbicidal evaluation; assay type: in vivo, Oryza sativa, (L.) Tebonnet; details: rated 4-5 weeks after treatment
[10] = tested on: ECHCG (Echinochloa crus-galli); test: Preemergence herbicidal evaluation; assay type: in vivo, (L.) Beau; details: rated 4-5 weeks after treatment
How it was run: as §1

[11] = tested on: SETVI (Setaria viridis); test: Preemergence herbicidal evaluation; assay type: in vivo, (L.) Beau; details: rated 4-5 weeks after treatment
How it was run: as §1

[12] = tested on: SETVI (Setaria viridis); test: Postemergence herbicidal evaluation; assay type: in vivo, (L.) Beau
How it was run: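 Visual injury score (0-9: stand, vigor, malformation, size, chlorosis, overall appearance vs untreated control) taken four to five weeks post-spray. Two-week-old seedlings received about 0.0040 to 1.000 kg/ha active compound in acetone/water with 0.5% TWEEN 20.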

[13] = tested on: ECHCG (Echinochloa crus-galli); test: Postemergence herbicidal evaluation; assay type: in vivo, (L.) Beau
How it was run: as §2

[14] = tested on: TRZAWR (Wheat, Winter, cv Riband); test: Preemergence herbicidal evaluation; assay type: in vivo, Triticum aestivum; details: rated 4-5 weeks after treatment
How it was run: as §1

[15] = tested on: ABUTH (Abutilon theophrasti); test: Preemergence herbicidal evaluation; assay type: in vivo, Medic.; details: rated 4-5 weeks after treatment
[16] = tested on: ZEAMX (Corn, Field); test: Postemergence herbicidal evaluation; assay type: in vivo, Zea mays, L.
How it was run: as §2

[17] = tested on: ORYSAT (Rice, Tebonnet); test: Postemergence herbicidal evaluation; assay type: in vivo, Oryza sativa, (L.) Tebonnet
How it was run: as §2

[18] = tested on: TRZAWR (Wheat, Winter, cv Riband); test: Postemergence herbicidal evaluation; assay type: in vivo, Triticum aestivum
How it was run: as §2

[19] = tested on: ECHORC (Echinochloa oryzoides); test: Flooded paddy, preemergence weed control; assay type: in vivo, Echinochloa oryzoides (Ard.) Fritsch.; details: rated 3-4 weeks after treatment, 0-9 rating scale
How it was run: as §3

Cc1cc(C)nc(-c2nsc3ccc(-n4c(=O)cc(C(F)(F)F)n(C)c4=O)cc23)n1 [Compound 40, 3-[3-(4,6-dimethyl-2-pyrimidinyl)-1,2-benzisothiazol-5-yl]-1-methyl-6-(trifluoromethyl)uracil]
herbicidal rating, CYPSE ([1]; rate 0.0320 kg/ha): 0.0 | herbicidal rating, CYPSE ([1]; rate 0.1250 kg/ha): 0.0 | Preemergence herbicidal rating CHEAL ([2]; Rate 0.0620 kg/ha): 9.0 | Preemergence herbicidal rating CHEAL ([2]; Rate 0.1250 kg/ha): 9.0 | Preemergence herbicidal rating CHEAL ([2]; Rate 0.2500 kg/ha): 9.0 | Preemergence herbicidal rating AMBEL ([3]; Rate 0.0620 kg/ha): 3.0 | Preemergence herbicidal rating AMBEL ([3]; Rate 0.1250 kg/ha): 5.0 | Preemergence herbicidal rating AMBEL ([3]; Rate 0.2500 kg/ha): 9.0 | Preemergence herbicidal rating CASOB ([4]; Rate 0.0620 kg/ha): 1.0 | Preemergence herbicidal rating CASOB ([4]; Rate 0.1250 kg/ha): 2.0 | Preemergence herbicidal rating CASOB ([4]; Rate 0.2500 kg/ha): 5.0 | Postemergence herbicidal rating, GLXMAW ([5]; rate 0.0320 kg/ha): 7.0 | Postemergence herbicidal rating, GLXMAW ([5]; rate 0.0620 kg/ha): 8.0 | herbicidal rating, MOOVA ([6]; rate 0.0320 kg/ha): 7.0 | herbicidal rating, MOOVA ([6]; rate 0.1250 kg/ha): 9.0 | Postemergence herbicidal rating, IPOHE ([7]; rate 0.0320 kg/ha): 9.0 | Postemergence herbicidal rating, IPOHE ([7]; rate 0.0620 kg/ha): 9.0 | Preemergence herbicidal rating GALAP ([8]; Rate 0.0620 kg/ha): 0.0 | Preemergence herbicidal rating GALAP ([8]; Rate 0.1250 kg/ha): 0.0 | Preemergence herbicidal rating GALAP ([8]; Rate 0.2500 kg/ha): 8.0 | Preemergence herbicidal rating ORYSAT ([9]; Rate 0.0620 kg/ha): 1.0 | Preemergence herbicidal rating ORYSAT ([9]; Rate 0.1250 kg/ha): 2.0 | Preemergence herbicidal rating ORYSAT ([9]; Rate 0.2500 kg/ha): 4.0 | Preemergence herbicidal rating ECHCG ([10]; Rate 0.0620 kg/ha): 3.0 | Preemergence herbicidal rating ECHCG ([10]; Rate 0.1250 kg/ha): 7.0 | Preemergence herbicidal rating ECHCG ([10]; Rate 0.2500 kg/ha): 8.0 | Preemergence herbicidal rating SETVI ([11]; Rate 0.0620 kg/ha): 3.0 | Preemergence herbicidal rating SETVI ([11]; Rate 0.1250 kg/ha): 9.0 | Preemergence herbicidal rating SETVI ([11]; Rate 0.2500 kg/ha): 9.0 | Postemergence herbicidal rating, SETVI ([12]; rate 0.0320 kg/ha): 3.0 | Postemergence herbicidal rating, SETVI ([12]; rate 0.0620 kg/ha): 9.0 | Postemergence herbicidal rating, ECHCG ([13]; rate 0.0320 kg/ha): 0.0 | Postemergence herbicidal rating, ECHCG ([13]; rate 0.0620 kg/ha): 1.0 | Preemergence herbicidal rating TRZAWR ([14]; Rate 0.0620 kg/ha): 1.0 | Preemergence herbicidal rating TRZAWR ([14]; Rate 0.1250 kg/ha): 5.0 | Preemergence herbicidal rating TRZAWR ([14]; Rate 0.2500 kg/ha): 9.0 | Preemergence herbicidal rating ABUTH ([15]; Rate 0.0620 kg/ha): 9.0 | Preemergence herbicidal rating ABUTH ([15]; Rate 0.1250 kg/ha): 9.0 | Preemergence herbicidal rating ABUTH ([15]; Rate 0.2500 kg/ha): 9.0 | Postemergence herbicidal rating, ZEAMX ([16]; rate 0.0320 kg/ha): 4.5 | Postemergence herbicidal rating, ZEAMX ([16]; rate 0.0620 kg/ha): 5.0 | Postemergence herbicidal rating, ORYSAT ([17]; rate 0.0320 kg/ha): 2.0 | Postemergence herbicidal rating, ORYSAT ([17]; rate 0.0620 kg/ha): 2.0 | Postemergence herbicidal rating, TRZAWR ([18]; rate 0.0320 kg/ha): 3.5 | Postemergence herbicidal rating, TRZAWR ([18]; rate 0.0620 kg/ha): 4.0 | herbicidal rating, ECHORC ([19]; rate 0.0320 kg/ha): 2.0 | herbicidal rating, ECHORC ([19]; rate 0.1250 kg/ha): 6.0

Cc1ccc(-c2nsc3ccc(-n4c(=O)cc(C(F)(F)F)n(C)c4=O)cc23)nc1 [Compound 42, 1-methyl-3-[3-(5-methyl-2-pyridyl)-1,2-benzisothiazol-5-yl]-6-(trifluoromethyl)uracil]
herbicidal rating, CYPSE ([1]; rate 0.0320 kg/ha): 0.0 | herbicidal rating, CYPSE ([1]; rate 0.1250 kg/ha): 0.0 | Preemergence herbicidal rating CHEAL ([2]; Rate 0.0620 kg/ha): 9.0 | Preemergence herbicidal rating CHEAL ([2]; Rate 0.1250 kg/ha): 9.0 | Preemergence herbicidal rating CHEAL ([2]; Rate 0.2500 kg/ha): 9.0 | Preemergence herbicidal rating AMBEL ([3]; Rate 0.0620 kg/ha): 1.0 | Preemergence herbicidal rating AMBEL ([3]; Rate 0.1250 kg/ha): 4.5 | Preemergence herbicidal rating AMBEL ([3]; Rate 0.2500 kg/ha): 9.0 | Preemergence herbicidal rating CASOB ([4]; Rate 0.0620 kg/ha): 0.5 | Preemergence herbicidal rating CASOB ([4]; Rate 0.1250 kg/ha): 0.5 | Preemergence herbicidal rating CASOB ([4]; Rate 0.2500 kg/ha): 0.0 | Postemergence herbicidal rating, GLXMAW ([5]; rate 0.0320 kg/ha): 6.0 | Postemergence herbicidal rating, GLXMAW ([5]; rate 0.0620 kg/ha): 8.0 | Postemergence herbicidal rating, GLXMAW ([5]; rate 0.1250 kg/ha): 8.0 | herbicidal rating, MOOVA ([6]; rate 0.0320 kg/ha): 8.0 | herbicidal rating, MOOVA ([6]; rate 0.1250 kg/ha): 9.0 | Postemergence herbicidal rating, IPOHE ([7]; rate 0.0320 kg/ha): 9.0 | Postemergence herbicidal rating, IPOHE ([7]; rate 0.0620 kg/ha): 9.0 | Postemergence herbicidal rating, IPOHE ([7]; rate 0.1250 kg/ha): 9.0 | Preemergence herbicidal rating GALAP ([8]; Rate 0.0620 kg/ha): 0.0 | Preemergence herbicidal rating GALAP ([8]; Rate 0.1250 kg/ha): 0.0 | Preemergence herbicidal rating GALAP ([8]; Rate 0.2500 kg/ha): 3.0 | Preemergence herbicidal rating ORYSAT ([9]; Rate 0.0620 kg/ha): 0.0 | Preemergence herbicidal rating ORYSAT ([9]; Rate 0.1250 kg/ha): 3.5 | Preemergence herbicidal rating ORYSAT ([9]; Rate 0.2500 kg/ha): 5.0 | Preemergence herbicidal rating ECHCG ([10]; Rate 0.0620 kg/ha): 1.0 | Preemergence herbicidal rating ECHCG ([10]; Rate 0.1250 kg/ha): 5.5 | Preemergence herbicidal rating ECHCG ([10]; Rate 0.2500 kg/ha): 8.5 | Preemergence herbicidal rating SETVI ([11]; Rate 0.0620 kg/ha): 5.0 | Preemergence herbicidal rating SETVI ([11]; Rate 0.1250 kg/ha): 7.5 | Preemergence herbicidal rating SETVI ([11]; Rate 0.2500 kg/ha): 9.0 | Postemergence herbicidal rating, SETVI ([12]; rate 0.0320 kg/ha): 5.0 | Postemergence herbicidal rating, SETVI ([12]; rate 0.0620 kg/ha): 5.0 | Postemergence herbicidal rating, SETVI ([12]; rate 0.1250 kg/ha): 9.0 | Postemergence herbicidal rating, ECHCG ([13]; rate 0.0320 kg/ha): 1.0 | Postemergence herbicidal rating, ECHCG ([13]; rate 0.0620 kg/ha): 1.0 | Postemergence herbicidal rating, ECHCG ([13]; rate 0.1250 kg/ha): 3.0 | Preemergence herbicidal rating TRZAWR ([14]; Rate 0.0620 kg/ha): 0.0 | Preemergence herbicidal rating TRZAWR ([14]; Rate 0.1250 kg/ha): 2.0 | Preemergence herbicidal rating TRZAWR ([14]; Rate 0.2500 kg/ha): 5.0 | Preemergence herbicidal rating ABUTH ([15]; Rate 0.0620 kg/ha): 2.0 | Preemergence herbicidal rating ABUTH ([15]; Rate 0.1250 kg/ha): 6.5 | Preemergence herbicidal rating ABUTH ([15]; Rate 0.2500 kg/ha): 9.0 | Postemergence herbicidal rating, ZEAMX ([16]; rate 0.0320 kg/ha): 5.5 | Postemergence herbicidal rating, ZEAMX ([16]; rate 0.0620 kg/ha): 5.5 | Postemergence herbicidal rating, ZEAMX ([16]; rate 0.1250 kg/ha): 5.5 | Postemergence herbicidal rating, ORYSAT ([17]; rate 0.0320 kg/ha): 1.0 | Postemergence herbicidal rating, ORYSAT ([17]; rate 0.0620 kg/ha): 1.5 | Postemergence herbicidal rating, ORYSAT ([17]; rate 0.1250 kg/ha): 1.5 | Postemergence herbicidal rating, TRZAWR ([18]; rate 0.0320 kg/ha): 4.0 | Postemergence herbicidal rating, TRZAWR ([18]; rate 0.0620 kg/ha): 5.0 | Postemergence herbicidal rating, TRZAWR ([18]; rate 0.1250 kg/ha): 5.0 | herbicidal rating, ECHORC ([19]; rate 0.0320 kg/ha): 2.0 | herbicidal rating, ECHORC ([19]; rate 0.1250 kg/ha): 6.0
